Assay results reported in patent US20140030808A1, “Method for Cellular RNA Expression” (BIONTECH AG, priority 2010, published 2014).

Key:
[1] = tested on: Primary human foreskin fibroblasts (CCD1079SK); assay: Induction of type-I interferon transcripts (qRT-PCR) after IVT RNA electroporation; assay type: cell-based; settings: 2 μM C13H8N4OS
Description: Primary human foreskin fibroblasts (CCD1079SK) were electroporated with 1 μg IVT RNA encoding for firefly luciferase and 5 μg IVT RNA encoding for destabilized GFP (luc+GFP). The cells were either left untreated or incubated with 2 μM C13H8N4OS (PKR-inhibitor). Upregulation of interferon-alpha and interferon-betatranscripts in human fibroblasts induced by RNA electroporation was observed (FIGS. 1A and 1C).
(§1) Total cellular RNA was extracted from cells with RNeasy Mini Kit or RNeasy Micro Kit (Qiagen, Hilden, Germany), reverse transcribed with oligo-dT18 using Superscript II (Invitrogen, Carlsbad, Calif., USA), and subjected to real-time quantitative analysis on ABI PRISM 7700 Sequence Detection System instrument and software (Applied Biosystems, Foster City, Calif., USA) using the QuantiTect SYBR Green PCR Kit (Qiagen). Reactions were performed in triplicates with primer amplifying a specific region of the codon optimized
Primary human foreskin fibroblasts (CCD1079SK) were electroporated with 1 μg IVT RNA encoding for firefly luciferase and 5 μg IVT RNA encoding for destabilized GFP (luc+GFP). Electroporations were performed in 2 mm gap cuvettes using optimized parameters. The cells were plated in 6-well-plates at a density of 300000 cells/well and either left untreated or incubated with 2 μM C13H8N4OS (PKR-inhibitor). 24 h later cells were harvested for total RNA extraction and reverse transcription. The induction of type-I interferons was assessed by qRT-PCR using specific primer for IFNα or IFNβ in the presence or absence of PKR-inhibitor as indicated in FIG. 1. Panels A and C show the same samples as B and D with reduced values of the y-axis.

[2] = tested on: immature dendritic cells (iDCs); assay: GFP expression by flow cytometry in iDCs electroporated with IVT RNA; assay type: cell-based, human; settings: 0.5 μM to 2 μM
Description: Human primary CD4 and CD 8 positive T-cells, as well as immature dendritic cells (iDCs) were isolated and electroporated with 5 μg IVT RNA encoding for destabilized GFP. iDCs were coelectroporated with 1 μg IVT RNA encoding for firefly luciferase. The cells were either left untreated or incubated with increasing amounts of C13H8N4OS (PKR-inhibitor) ranging from 0.5 μM to 2 μM as indicated in the panel legends. (A) T-cells and (B) iDCs were harvested at the indicated time points and GFP expression was assessed by flow cytometry. The mean fluorescence intensity (MFI) of the transfected, GFP-positive cell fractions is shown. (C) For luciferase assays, iDCs were plated in duplicates into 96-well-plates at a density of 10000 cells/well. Luciferase activity was measured at the indicated time points. Mean values of the duplicates are given.
For quantification of d2eGFP and eGFP protein, cells were washed in PBS, fixed using PBS supplemented with 2% formaldehyde and analyzed by flow cytometry on a FACS Canto II flow cytometer (BD Biosciences, Heidelberg, Germany). Gating was performed on living cells and mean fluorescence intensity (MFI) of GFP expressing cell populations was quantified using FlowJo software (Tree Star, Ashland, Oreg., USA). […] Gating was performed on living CD4+ and CD8+ T-cells and GFP expression and MFI of both T-cell subpopulations was determined by flow cytometry. […]

[3] = tested on: immature dendritic cells (iDCs); assay type: cell-based, human; settings: 0.5 μM to 2 μM
CCD1079SK fibroblasts = assay: Induction of pluripotency marker genes (qRT-PCR); assay type: cell-based, human; settings: 2 μM, 72 h after electroporation
Description: CCD1079SK fibroblasts were either mock electroporated or electroporated with IVT RNA encoding for firefly luciferase (1 μg), eGFP (1.25 μg), SV40 Large T (1.25 μg), HPV16-E6 (1.25 μg), OCT4, SOX2, KLF4, cMYC, NANOG and LIN28 (2.5 μg OCT4 and equimolar amounts for the others). Electroporations were performed in 2 mm gap cuvettes using optimized parameters for CCDs. The cells were plated into 6-well-plates at a density of 250000 cells/well and either left untreated or incubated with 2 μM C13H8N4OS as indicated. […] GDF3 and hTERT induction was increased by the treatment 72 h after electroporation.
as §1
A direct consequence of reprogramming transcription factor expression is the induction of pluripotency marker genes at the transcriptional level. […]

[4] = tested on: Primary human foreskin fibroblasts (HFF); assay type: cell-based; settings: 24 h supernatants

With `O=C1Nc2ccc3ncsc3c2/C1=C/c1c[nH]cn1` [C13H8N4OS, 6,8-dihydro-8-(1H-imidazol-5-ylmethylene)-7H-pyrrolo[2,3-g]benzothiazol-7-one] the IFN-α transcript induction ([1]; 24 h, with or without RNA) was “induced even in the absence of RNA”, the IFN-β transcript induction ([1]; 24 h, with or without RNA) was “only in the presence of RNA” and the “interferon transcripts (IFNα, IFNβ; qRT-PCR)” value ([1]; 24 h after electroporation with luc+GFP IVT RNA, vs untreated) was “overwhelming increase”. The “GFP expression (MFI)” value [2] was “Neither in T-cells nor in iDCs PKR inhibition led to an increased GFP expression”, the luciferase expression [3] was “loss of luciferase expression” and the “GDF3 induction (qRT-PCR)” value (CCD1079SK fibroblasts) was “increased”. The “hTERT induction (qRT-PCR)” value (CCD1079SK fibroblasts) was “increased”, the “secretion of IFNβ” value ([4]; 2 μM C13H8N4OS, HFF electroporated with eGFP IVT RNA) was “remarkably enhanced” and the “secretion of IFNα” value ([4]; HFF, with or without 2 μM C13H8N4OS) was “not observed”.
